Reference: ChEMBL document CHEMBL1201862, “PubChem BioAssay data set” (2004)
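Test compounds were applied to cells in 96-well plates for 48 hours at 5 doses. GI50: concentration for 50% inhibition of growth.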 The source made the active and inactive calls. No stated cut-off is given here; in the data, active = GI50 up to about 1.1 µM and inactive = higher.

What was measured:
Test in all cases: DTP human tumour cell line panel, 48 h
786-0 = tested on: 786-0
A498 = tested on: A498
CCRF-CEM = tested on: CCRF-CEM
COLO 205 = tested on: COLO 205
HCT-116 = tested on: HCT-116
IGROV-1 = tested on: IGROV-1
K562 = tested on: K562
KM12 = tested on: KM12
LXFL 529 = tested on: LXFL 529
M14 = tested on: M14
M19-MEL = tested on: M19-MEL
NCI-H226 = tested on: NCI-H226
NCI-H23 = tested on: NCI-H23
NCI-H460 = tested on: NCI-H460
SF-295 = tested on: SF-295
SK-MEL-5 = tested on: SK-MEL-5
SK-OV-3 = tested on: SK-OV-3
U-251 = tested on: U-251
CAKI-1 = tested on: CAKI-1

Q: For `CC1(C)CCCC2(C)C3C(O)CC2(C)C(O)C31` (stereo not drawn), which GI50 (786-0) is on record?
A: The GI50 was < 0.01 µM (active).

Q: What about the GI50 (A498) of the same compound?
A: Its GI50 is > 100 µM (inactive).

Q: What about the GI50 (CCRF-CEM) of the same compound?
A: Its GI50 is > 100 µM (inactive).

Q: And the GI50 (COLO 205)?
A: Its GI50 is > 100 µM (inactive).

Q: What about the GI50 (HCT-116) of the same compound?
A: The GI50 was > 100 µM (inactive).

Q: And the GI50 (IGROV-1)?
A: Its GI50 is > 100 µM (inactive).

Q: And the GI50 (K562)?
A: Its GI50 is > 100 µM (inactive).

Q: And the GI50 (KM12)?
A: Its GI50 is > 100 µM (inactive).

Q: And the GI50 (LXFL 529)?
A: Its GI50 is > 100 µM (inactive).

Q: What about the GI50 (M14) of the same compound?
A: The GI50 was > 100 µM (inactive).

Q: What about the GI50 (M19-MEL) of the same compound?
A: The GI50 was > 100 µM (inactive).

Q: What about the GI50 (NCI-H226) of the same compound?
A: Its GI50 is > 100 µM (inactive).

Q: What about the GI50 (NCI-H23) of the same compound?
A: Its GI50 is > 100 µM (inactive).

Q: And the GI50 (NCI-H460)?
A: The GI50 was > 100 µM (inactive).

Q: And the GI50 (SF-295)?
A: The GI50 was > 100 µM (inactive).

Q: What about the GI50 (SK-MEL-5) of the same compound?
A: Its GI50 is > 100 µM (inactive).

Q: What about the GI50 (SK-OV-3) of the same compound?
A: The GI50 was > 100 µM (inactive).

Q: And the GI50 (U-251)?
A: The GI50 was > 100 µM (inactive).

Q: With `COc1ccc(OC)c2cc(C3(C)SCCCS3)ccc12` as the compound, how does the GI50 (786-0) read?
A: The GI50 was 73.6 µM (inactive).

Q: And the GI50 (A498)?
A: Its GI50 is > 100 µM (inactive).

Q: And the GI50 (CAKI-1)?
A: Its GI50 is 61 µM (inactive).

Q: What about the GI50 (CCRF-CEM) of the same compound?
A: Its GI50 is 71 µM (inactive).

Q: And the GI50 (COLO 205)?
A: Its GI50 is > 100 µM (inactive).

Q: What about the GI50 (HCT-116) of the same compound?
A: Its GI50 is 83.4 µM (inactive).

Q: What about the GI50 (IGROV-1) of the same compound?
A: Its GI50 is > 100 µM (inactive).

Q: What about the GI50 (K562) of the same compound?
A: Its GI50 is 53.5 µM (inactive).

Q: What about the GI50 (KM12) of the same compound?
A: Its GI50 is > 100 µM (inactive).

Q: And the GI50 (LXFL 529)?
A: The GI50 was > 100 µM (inactive).

Q: What about the GI50 (M14) of the same compound?
A: The GI50 was 65 µM (inactive).

Q: And the GI50 (M19-MEL)?
A: Its GI50 is > 100 µM (inactive).

Q: And the GI50 (NCI-H23)?
A: Its GI50 is 84.3 µM (inactive).

Q: And the GI50 (NCI-H460)?
A: The GI50 was 78.3 µM (inactive).

Q: And the GI50 (SF-295)?
A: The GI50 was 78.2 µM (inactive).

Q: And the GI50 (SK-MEL-5)?
A: The GI50 was > 100 µM (inactive).

Q: What about the GI50 (SK-OV-3) of the same compound?
A: Its GI50 is > 100 µM (inactive).

Q: What about the GI50 (U-251) of the same compound?
A: Its GI50 is 19.3 µM (inactive).

Q: For `O=C(CC1C(=O)Nc2ccccc2S1(=O)=O)Nc1ccc(Cl)cc1` (stereo not drawn), which GI50 (786-0) is on record?
A: The GI50 was 14.5 µM (inactive).

Q: And the GI50 (A498)?
A: Its GI50 is 25.8 µM (inactive).

Q: What about the GI50 (CAKI-1) of the same compound?
A: Its GI50 is 16.5 µM (inactive).

Q: What about the GI50 (CCRF-CEM) of the same compound?
A: The GI50 was 20.3 µM (inactive).

Q: What about the GI50 (HCT-116) of the same compound?
A: Its GI50 is 27.7 µM (inactive).

Q: What about the GI50 (IGROV-1) of the same compound?
A: Its GI50 is 17.2 µM (inactive).

Q: And the GI50 (K562)?
A: The GI50 was 18.2 µM (inactive).

Q: And the GI50 (LXFL 529)?
A: The GI50 was 22.9 µM (inactive).

Q: And the GI50 (M14)?
A: The GI50 was 31 µM (inactive).

Q: What about the GI50 (M19-MEL) of the same compound?
A: The GI50 was 24 µM (inactive).

Q: And the GI50 (NCI-H226)?
A: Its GI50 is 32.2 µM (inactive).

Q: And the GI50 (NCI-H23)?
A: Its GI50 is 38.9 µM (inactive).

Q: What about the GI50 (NCI-H460) of the same compound?
A: Its GI50 is 30.3 µM (inactive).

Q: What about the GI50 (SF-295) of the same compound?
A: Its GI50 is 45.6 µM (inactive).

Q: What about the GI50 (SK-MEL-5) of the same compound?
A: The GI50 was 21.2 µM (inactive).

Q: What about the GI50 (U-251) of the same compound?
A: The GI50 was 16 µM (inactive).

Q: With `Nc1nc(Cl)cc(NCC(O)CO)n1` (stereo not drawn) as the compound, how does the GI50 (786-0) read?
A: The GI50 was > 100 µM (inactive).

Q: What about the GI50 (A498) of the same compound?
A: Its GI50 is > 100 µM (inactive).

Q: What about the GI50 (CCRF-CEM) of the same compound?
A: The GI50 was > 100 µM (inactive).

Q: What about the GI50 (COLO 205) of the same compound?
A: Its GI50 is > 100 µM (inactive).

Q: What about the GI50 (HCT-116) of the same compound?
A: Its GI50 is > 100 µM (inactive).

Q: And the GI50 (IGROV-1)?
A: Its GI50 is > 100 µM (inactive).

Q: What about the GI50 (K562) of the same compound?
A: Its GI50 is > 100 µM (inactive).

Q: And the GI50 (KM12)?
A: Its GI50 is > 100 µM (inactive).

Q: And the GI50 (LXFL 529)?
A: Its GI50 is > 100 µM (inactive).

Q: And the GI50 (M14)?
A: Its GI50 is > 100 µM (inactive).

Q: And the GI50 (M19-MEL)?
A: The GI50 was > 100 µM (inactive).

Q: And the GI50 (NCI-H226)?
A: Its GI50 is > 100 µM (inactive).

Q: What about the GI50 (NCI-H23) of the same compound?
A: Its GI50 is > 100 µM (inactive).

Q: And the GI50 (NCI-H460)?
A: The GI50 was > 100 µM (inactive).

Q: What about the GI50 (SF-295) of the same compound?
A: Its GI50 is > 100 µM (inactive).

Q: And the GI50 (SK-MEL-5)?
A: Its GI50 is > 100 µM (inactive).

Q: And the GI50 (SK-OV-3)?
A: Its GI50 is > 100 µM (inactive).

Q: What about the GI50 (U-251) of the same compound?
A: The GI50 was > 100 µM (inactive).

Q: With `O=C(Nc1cc(Cl)c(Cl)cc1Cl)C(=O)C(C(=O)c1ccc(Cl)c(Cl)c1)C1OC(=O)c2ccccc21` (stereo not drawn) as the compound, how does the GI50 (786-0) read?
A: The GI50 was 13.4 µM (inactive).

Q: What about the GI50 (A498) of the same compound?
A: The GI50 was 17.2 µM (inactive).

Q: What about the GI50 (CAKI-1) of the same compound?
A: Its GI50 is 16.1 µM (inactive).

Q: And the GI50 (CCRF-CEM)?
A: Its GI50 is 5.35 µM (inactive).

Q: And the GI50 (COLO 205)?
A: Its GI50 is 15 µM (inactive).

Q: What about the GI50 (HCT-116) of the same compound?
A: Its GI50 is 15.1 µM (inactive).

Q: What about the GI50 (K562) of the same compound?
A: Its GI50 is 4.2 µM (inactive).

Q: What about the GI50 (KM12) of the same compound?
A: The GI50 was 16.6 µM (inactive).

Q: And the GI50 (LXFL 529)?
A: Its GI50 is 10.9 µM (inactive).

Q: And the GI50 (M14)?
A: The GI50 was 13.5 µM (inactive).

Q: What about the GI50 (M19-MEL) of the same compound?
A: Its GI50 is 17.6 µM (inactive).

Q: What about the GI50 (NCI-H226) of the same compound?
A: The GI50 was 7.45 µM (inactive).

Q: What about the GI50 (NCI-H23) of the same compound?
A: Its GI50 is > 10 µM (inactive).

Q: And the GI50 (NCI-H460)?
A: Its GI50 is 3.07 µM (inactive).

Q: And the GI50 (SF-295)?
A: Its GI50 is 11.9 µM (inactive).

Q: And the GI50 (SK-OV-3)?
A: The GI50 was 26.1 µM (inactive).

Q: What about the GI50 (U-251) of the same compound?
A: Its GI50 is 15.3 µM (inactive).

Q: Which GI50 (786-0) does the source give for `COc1ccc(-c2cc(=O)c3cc(C)c(C)c(C(=O)O)c3o2)cc1` here?
A: Its GI50 is > 100 µM (inactive).

Q: And the GI50 (A498)?
A: The GI50 was > 100 µM (inactive).

Q: And the GI50 (CAKI-1)?
A: The GI50 was > 100 µM (inactive).

Q: What about the GI50 (CCRF-CEM) of the same compound?
A: Its GI50 is > 100 µM (inactive).

Q: And the GI50 (COLO 205)?
A: Its GI50 is > 100 µM (inactive).

Q: What about the GI50 (HCT-116) of the same compound?
A: Its GI50 is > 100 µM (inactive).

Q: And the GI50 (IGROV-1)?
A: Its GI50 is > 100 µM (inactive).

Q: And the GI50 (K562)?
A: The GI50 was > 100 µM (inactive).

Q: What about the GI50 (KM12) of the same compound?
A: Its GI50 is > 100 µM (inactive).

Q: What about the GI50 (LXFL 529) of the same compound?
A: The GI50 was > 100 µM (inactive).

Q: What about the GI50 (M19-MEL) of the same compound?
A: The GI50 was > 100 µM (inactive).

Q: And the GI50 (NCI-H23)?
A: The GI50 was > 100 µM (inactive).

Q: And the GI50 (NCI-H460)?
A: Its GI50 is > 100 µM (inactive).

Q: What about the GI50 (SF-295) of the same compound?
A: The GI50 was > 100 µM (inactive).

Q: And the GI50 (SK-OV-3)?
A: Its GI50 is > 100 µM (inactive).

Q: And the GI50 (U-251)?
A: The GI50 was > 100 µM (inactive).
